One assay has as its target human JAK2 (Homo sapiens (Human), UniProt O60674). In words: In vitro JAK kinase assay (Example A), JAK2. It counts as biochemical. As to conditions: JAK2/JAK1 IC50 ratio, 1 mM ATP. Here is the method: The compounds in Table 2 were tested in this assay and shown to have the IC50 values in Table 2.
The target in a further assay is human JAK1 (Homo sapiens, UniProt P23458). In words: In vitro JAK kinase assay (Example A), JAK1. The assay is classed as biochemical. The note with it: 1 mM ATP. An excerpt: In some embodiments, the JAK1 pathway inhibitor is a compound of Table 2, or a pharmaceutically acceptable salt thereof.

pIC50: −log10 of the molar value.

Chain of human JAK2 (O60674 828-1132): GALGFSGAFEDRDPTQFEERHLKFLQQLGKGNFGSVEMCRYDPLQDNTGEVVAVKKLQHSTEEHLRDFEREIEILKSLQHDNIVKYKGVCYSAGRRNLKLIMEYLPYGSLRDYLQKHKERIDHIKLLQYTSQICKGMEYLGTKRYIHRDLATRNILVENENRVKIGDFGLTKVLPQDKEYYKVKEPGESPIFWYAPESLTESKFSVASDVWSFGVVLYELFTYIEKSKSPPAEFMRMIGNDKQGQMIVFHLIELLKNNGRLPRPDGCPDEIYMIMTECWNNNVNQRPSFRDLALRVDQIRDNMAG

Take `CCNCc1cc(O[C@H]2CC[C@@H](N3CC(CC#N)(n4cc(-c5ncnc6[nH]ccc56)cn4)C3)CC2)nc(C(F)(F)F)c1` [Compound 19, {1-(cis-4-{[4-[(ethylamino)methyl]-6-(trifluoromethyl)pyridin-2-yl]oxy}cyclohexyl)-3-[4-(7H-pyrrolo[2,3-d]pyrimidin-4-yl)-1H-pyrazol-1-yl]azetidin-3-yl}acetonitrile]: the JAK2/JAK1 at human JAK2 is given as more than 10. Besides, at human JAK1, the pIC50 was more than 8.00.
Taken in the same sequence, the figures for `C[C@H](NC(=O)c1cc(F)c(N2CC(CC#N)(n3cc(-c4ncnc5[nH]ccc45)cn3)C2)cc1F)C(F)(F)F` [Compound 16, 4-{3-(cyanomethyl)-3-[4-(7H-pyrrolo[2,3-d]pyrimidin-4-yl)-1H-pyrazol-1-yl]azetidin-1-yl}-2,5-difluoro-N-[(1S)-2,2,2-trifluoro-1-methylethyl]benzamide] were more than 10 and more than 8.00.
The corresponding values for `N#CCC(C1CCN(c2nc3cccnc3o2)C1)n1cc(-c2ncnc3[nH]ccc23)cn1` (stereo not drawn) [Compound 7, 3-(1-[1,3]oxazolo[5,4-b]pyridin-2-ylpyrrolidin-3-yl)-3-[4-(7H-pyrrolo[2,3-d]pyrimidin-4-yl)-1H-pyrazol-1-yl]propanenitrile] are more than 10 and more than 8.00.
The corresponding values for `C[C@H](O)CNCc1cc(OC2CCN([C@H]3C[C@](CC#N)(n4cc(-c5ncnc6[nH]ccc56)cn4)C3)CC2)nc(C(F)(F)F)c1` [Compound 25, {trans-3-(4-{[4-({[(2S)-2-hydroxypropyl]amino}methyl)-6-(trifluoromethyl)pyridin-2-yl]oxy}piperidin-1-yl)-1-[4-(7H-pyrrolo[2,3-d]pyrimidin-4-yl)-1H-pyrazol-1-yl]cyclobutyl}acetonitrile] are more than 10 and more than 8.00.
As for `CC(C)(O)c1cc(O[C@H]2CC[C@@H](N3CC(CC#N)(n4cc(-c5ncnc6[nH]ccc56)cn4)C3)CC2)nc(C(F)(F)F)c1` [Compound 20, {1-(cis-4-{[4-(1-hydroxy-1-methylethyl)-6-(trifluoromethyl)pyridin-2-yl]oxy}cyclohexyl)-3-[4-(7H-pyrrolo[2,3-d]pyrimidin-4-yl)-1H-pyrazol-1-yl]azetidin-3-yl}acetonitrile], the JAK2/JAK1 on human JAK2 is more than 10. Also, the pIC50 against human JAK1 is more than 8.00.
Taken in the same sequence, the figures for `N#CC[C@]1(n2cc(-c3ncnc4[nH]ccc34)cn2)C[C@H](N2CCN(C(=O)c3ccnc(C(F)(F)F)n3)CC2)C1` [Compound 10, [trans-1-[4-(7H-pyrrolo[2,3-d]pyrimidin-4-yl)-1H-pyrazol-1-yl]-3-(4-{[2-(trifluoromethyl)pyrimidin-4-yl]carbonyl}piperazin-1-yl)cyclobutyl]acetonitrile] were more than 10 and more than 8.00.
Taken in the same sequence, the figures for `N#CCC1(n2cc(-c3ncnc4[nH]ccc34)cn2)CN(C2CCN(C(=O)Nc3ccc(F)cc3C(F)(F)F)CC2)C1` [Compound 2, 4-{3-(Cyanomethyl)-3-[4-(7H-pyrrolo[2,3-d]pyrimidin-4-yl)-1H-pyrazol-1-yl]azetidin-1-yl}-N-[4-fluoro-2-(trifluoromethyl)phenyl] piperidine-1-carboxamide] were more than 10 and more than 8.00.
`N#CC[C@]1(n2cc(-c3ncnc4[nH]ccc34)cn2)C[C@H](N2CCC(Oc3cc(CN4CC(O)C4)cc(C(F)(F)F)n3)CC2)C1` [Compound 11, {trans-3-(4-{[4-[(3-hydroxyazetidin-1-yl)methyl]-6-(trifluoromethyl)pyridin-2-yl]oxy}piperidin-1-yl)-1-[4-(7H-pyrrolo[2,3-d]pyrimidin-4-yl)-1H-pyrazol-1-yl]cyclobutyl}acetonitrile]: on human JAK2, the JAK2/JAK1 was more than 10. The compound further showed a pIC50 against human JAK1 of more than 8.00.
Taken in the same sequence, the figures for `N#CC[C@]1(n2cc(-c3ncnc4[nH]ccc34)cn2)C[C@H](N2CCC(Oc3cc(CN4CCC[C@H]4CO)cc(C(F)(F)F)n3)CC2)C1` [Compound 12, {trans-3-(4-{[4-{[(2S)-2-(hydroxymethyl)pyrrolidin-1-yl]methyl}-6-(trifluoromethyl)pyridin-2-yl]oxy}piperidin-1-yl)-1-[4-(7H-pyrrolo[2,3-d]pyrimidin-4-yl)-1H-pyrazol-1-yl]cyclobutyl}acetonitrile] were more than 10 and more than 8.00.
Taken in the same sequence, the figures for `N#CCC1(n2cc(-c3ncnc4[nH]ccc34)cn2)CN(C2CCN(C(=O)c3ccnc(C(F)(F)F)n3)CC2)C1` [Compound 3, [3-[4-(7H-pyrrolo[2,3-d]pyrimidin-4-yl)-1H-pyrazol-1-yl]-1-(1-{[2-(trifluoromethyl)pyrimidin-4-yl]carbonyl}piperidin-4-yl)azetidin-3-yl]acetonitrile] were more than 10 and more than 8.00.
Taken in the same sequence, the figures for `N#CC[C@]1(n2cc(-c3ncnc4[nH]ccc34)cn2)C[C@H](N2CCC(Oc3cc(CCO)cc(C(F)(F)F)n3)CC2)C1` [Compound 26, {trans-3-(4-{[4-(2-hydroxyethyl)-6-(trifluoromethyl)pyridin-2-yl]oxy}piperidin-1-yl)-1-[4-(7H-pyrrolo[2,3-d]pyrimidin-4-yl)-1H-pyrazol-1-yl]cyclobutyl}acetonitrile] were more than 10 and more than 8.00.
As for `C[C@@H](O)CNCc1cc(OC2CCN([C@H]3C[C@](CC#N)(n4cc(-c5ncnc6[nH]ccc56)cn4)C3)CC2)nc(C(F)(F)F)c1` [Compound 24, {trans-3-(4-{[4-({[(2R)-2-hydroxypropyl]amino}methyl)-6-(trifluoromethyl)pyridin-2-yl]oxy}piperidin-1-yl)-1-[4-(7H-pyrrolo[2,3-d]pyrimidin-4-yl)-1H-pyrazol-1-yl]cyclobutyl}acetonitrile], the JAK2/JAK1 at human JAK2 is on record as more than 10. Also, at human JAK1, the pIC50 was more than 8.00.
Taken in the same sequence, the figures for `N#CC[C@]1(n2cc(-c3ncnc4[nH]ccc34)cn2)C[C@H](N2CCC(Oc3cc(CN4CCC[C@@H]4CO)cc(C(F)(F)F)n3)CC2)C1` [Compound 13, {trans-3-(4-{[4-{[(2R)-2-(hydroxymethyl)pyrrolidin-1-yl]methyl}-6-(trifluoromethyl)pyridin-2-yl]oxy}piperidin-1-yl)-1-[4-(7H-pyrrolo[2,3-d]pyrimidin-4-yl)-1H-pyrazol-1-yl]cyclobutyl}acetonitrile] were more than 10 and more than 8.00.
Taken in the same sequence, the figures for `N#CCC1(n2cc(-c3ncnc4[nH]ccc34)cn2)CN([C@H]2CC[C@@H](Oc3cc(CN4CC[C@@H](O)C4)cc(C(F)(F)F)n3)CC2)C1` [Compound 21, {1-(cis-4-{[4-{[(3R)-3-hydroxypyrrolidin-1-yl]methyl}-6-(trifluoromethyl)pyridin-2-yl]oxy}cyclohexyl)-3-[4-(7H-pyrrolo[2,3-d]pyrimidin-4-yl)-1H-pyrazol-1-yl]azetidin-3-yl}acetonitrile] were more than 10 and more than 8.00.
Turning to `N#CCC1(n2cc(-c3ncnc4[nH]ccc34)cn2)CN([C@H]2CC[C@@H](Oc3cc(CN4CC[C@H](O)C4)cc(C(F)(F)F)n3)CC2)C1` [Compound 22, {1-(cis-4-{[4-{[(3S)-3-hydroxypyrrolidin-1-yl]methyl}-6-(trifluoromethyl)pyridin-2-yl]oxy}cyclohexyl)-3-[4-(7H-pyrrolo[2,3-d]pyrimidin-4-yl)-1H-pyrazol-1-yl]azetidin-3-yl}acetonitrile], at human JAK2, the JAK2/JAK1 is reported as more than 10. At human JAK1, this compound showed a pIC50 of more than 8.00.
The corresponding values for `N#CCC(C1CCN(c2cccc(Cl)n2)C1)n1cc(-c2ncnc3[nH]ccc23)cn1` (single isomer, unassigned) [Compound 6, 3-[1-(6-chloropyridin-2-yl)pyrrolidin-3-yl]-3-[4-(7H-pyrrolo[2,3-d]pyrimidin-4-yl)-1H-pyrazol-1-yl]propanenitrile] are more than 10 and more than 8.00.
Taken in the same sequence, the figures for `C[C@@H](CO)NCc1cc(OC2CCN([C@H]3C[C@](CC#N)(n4cc(-c5ncnc6[nH]ccc56)cn4)C3)CC2)nc(C(F)(F)F)c1` [Compound 23, {trans-3-(4-{[4-({[(1S)-2-hydroxy-1-methylethyl]amino}methyl)-6-(trifluoromethyl)pyridin-2-yl]oxy}piperidin-1-yl)-1-[4-(7H-pyrrolo[2,3-d]pyrimidin-4-yl)-1H-pyrazol-1-yl]cyclobutyl}acetonitrile] were more than 10 and more than 8.00.
Taken in the same sequence, the figures for `N#CCC1(n2cc(-c3ncnc4[nH]ccc34)cn2)CN([C@H]2CC[C@@H](Oc3cc(CCO)nc(C(F)(F)F)n3)CC2)C1` [Compound 18, {1-(cis-4-{[6-(2-hydroxyethyl)-2-(trifluoromethyl)pyrimidin-4-yl]oxy}cyclohexyl)-3-[4-(7H-pyrrolo[2,3-d]pyrimidin-4-yl)-1H-pyrazol-1-yl]azetidin-3-yl}acetonitrile] were more than 10 and more than 8.00.
With `C[C@@H](O)c1nc2cnc3ccsc3c2n1[C@H]1CC[C@H](CC#N)OC1` [Compound 5, ((2R,5S)-5-{2-[(1R)-1-hydroxyethyl]-1H-imidazo[4,5-d]thieno[3,2-b]pyridin-1-yl}tetrahydro-2H-pyran-2-yl)acetonitrile], on human JAK2, the JAK2/JAK1 is listed as more than 10. Also, the pIC50 against human JAK1 is more than 7.00.
The corresponding values for `N#CCC(CN1CCN(C(=O)c2ccc(C#N)cc2F)CC1)n1cc(-c2ncnc3[nH]ccc23)cn1` (stereo not drawn) [Compound 8, 4-[(4-{3-cyano-2-[4-(7H-pyrrolo[2,3-d]pyrimidin-4-yl)-1H-pyrazol-1-yl]propyl}piperazin-1-yl)carbonyl]-3-fluorobenzonitrile] are more than 10 and more than 8.00.
Taken in the same sequence, the figures for `N#CCC(CN1CCN(C(=O)c2ccc(C#N)cc2F)CC1)n1ccc(-c2ncnc3[nH]ccc23)c1` (stereo not drawn) [Compound 9, 4-[(4-{3-cyano-2-[3-(7H-pyrrolo[2,3-d]pyrimidin-4-yl)-1H-pyrrol-1-yl]propyl}piperazin-1-yl)carbonyl]-3-fluorobenzonitrile] were more than 10 and more than 8.00.

Values taken from patent publication US11406640B2, “JAK1 pathway inhibitors for the treatment of chronic lung allograft dysfunction” (Incyte Corporation, priority 2019, dated 2022).
